Tested on: 324938-238-R-J1-PDC complex spheroids viability
Assay: Anticancer human tumor 324938-238-R-J1-PDC patient-derived bladder carcinoma cell line growth inhibition [CLK]
Settings: for IC50: curve of first compound; for viability, T/C: stronger effect = lower value
Outline: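 Patient-derived tumor cells grown as complex spheroids with HUVEC endothelial cells and mesenchymal stem cells, treated with drug combinations. Concentrations descend in half-log steps from near clinical Cmax, or from 10 microM if Cmax unknown.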

[1] = second compound 0.0316 µM, first compound 0.0316 µM
[2] = second compound 0.0316 µM, first compound 0.1 µM
[3] = second compound 0.0316 µM, first compound 0.316 µM
[4] = second compound 0.0316 µM, first compound 1 µM
[5] = second compound 0.1 µM, first compound 0.0316 µM
[6] = second compound 0.1 µM, first compound 0.1 µM
[7] = second compound 0.1 µM, first compound 0.316 µM
[8] = second compound 0.1 µM, first compound 1 µM
[9] = second compound 0.316 µM, first compound 0.0316 µM
[10] = second compound 0.316 µM, first compound 0.1 µM
[11] = second compound 0.316 µM, first compound 0.316 µM
[12] = second compound 0.316 µM, first compound 1 µM
[13] = second compound 1 µM, first compound 0.0316 µM
[14] = second compound 1 µM, first compound 0.1 µM
[15] = second compound 1 µM, first compound 0.316 µM
[16] = second compound 1 µM, first compound 1 µM
[17] = second compound 3.16 µM, first compound 0.0316 µM
[18] = second compound 3.16 µM, first compound 0.1 µM
[19] = second compound 3.16 µM, first compound 0.316 µM
[20] = second compound 3.16 µM, first compound 1 µM
[21] = second compound 10 µM, first compound 0.0316 µM
[22] = second compound 10 µM, first compound 0.1 µM
[23] = second compound 10 µM, first compound 0.316 µM
[24] = second compound 10 µM, first compound 1 µM
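Further: viability read after seven days of drug exposure.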
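Wherever viability, T/C is given: 100% = DMSO vehicle control wells.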

SMILES: CCN1CCN(Cc2ccc(Nc3ncc(F)c(-c4cc(F)c5nc(C)n(C(C)C)c5c4)n3)nc2)CC1 + CNC(=O)c1ccc(Nc2nc(OC3CCCC3)c3c(-c4ccc5nc(C)oc5c4)c[nH]c3n2)c(OC)c1
- IC50 (second compound 0.0316 µM): 87.6 nM
- IC50 (second compound 0.1 µM): < 3.16 nM
- IC50 (second compound 0.316 µM): < 3.16 nM
- IC50 (second compound 1 µM): < 3.16 nM
- IC50 (second compound 3.16 µM): < 3.16 nM
- IC50 (second compound 10 µM): < 3.16 nM
- viability, T/C (second compound 0.0316 µM, first compound 0.00316 µM): 75.9%
- viability, T/C (second compound 0.0316 µM, first compound 0.01 µM): 77.3%
- viability, T/C [1]: 57.8%
- viability, T/C [2]: 49.9%
- viability, T/C [3]: 42.8%
- viability, T/C [4]: 36.6%
- viability, T/C (second compound 0.1 µM, first compound 0.00316 µM): 32.2%
- viability, T/C (second compound 0.1 µM, first compound 0.01 µM): 31.5%
- viability, T/C [5]: 29.7%
- viability, T/C [6]: 30.7%
- viability, T/C [7]: 33.5%
- viability, T/C [8]: 38.7%
- viability, T/C (second compound 0.316 µM, first compound 0.00316 µM): 19.7%
- viability, T/C (second compound 0.316 µM, first compound 0.01 µM): 17%
- viability, T/C [9]: 19%
- viability, T/C [10]: 22.7%
- viability, T/C [11]: 30.5%
- viability, T/C [12]: 33.3%
- viability, T/C (second compound 1 µM, first compound 0.00316 µM): 18.5%
- viability, T/C (second compound 1 µM, first compound 0.01 µM): 17.9%
- viability, T/C [13]: 16.8%
- viability, T/C [14]: 21.5%
- viability, T/C [15]: 22.6%
- viability, T/C [16]: 31.9%
- viability, T/C (second compound 3.16 µM, first compound 0.00316 µM): 19%
- viability, T/C (second compound 3.16 µM, first compound 0.01 µM): 18%
- viability, T/C [17]: 16.1%
- viability, T/C [18]: 20.6%
- viability, T/C [19]: 29.9%
- viability, T/C [20]: 30.5%
- viability, T/C (second compound 10 µM, first compound 0.00316 µM): 16.4%
- viability, T/C (second compound 10 µM, first compound 0.01 µM): 15.9%
- viability, T/C [21]: 21.2%
- viability, T/C [22]: 18.4%
- viability, T/C [23]: 23%
- viability, T/C [24]: 32.5%

SMILES: NC(=O)C(=Cn1cnc(-c2cc(C(F)(F)F)cc(C(F)(F)F)c2)n1)c1cncnc1 + CNC(=O)c1ccc(Nc2nc(OC3CCCC3)c3c(-c4ccc5nc(C)oc5c4)c[nH]c3n2)c(OC)c1
- IC50 (second compound 0.0316 µM): 60.8 nM
- IC50 (second compound 0.1 µM): < 9.49 nM
- IC50 (second compound 0.316 µM): < 9.49 nM
- IC50 (second compound 1 µM): < 9.49 nM
- IC50 (second compound 3.16 µM): < 9.49 nM
- IC50 (second compound 10 µM): < 9.49 nM
- viability, T/C (second compound 0.0316 µM, first compound 0.00949 µM): 67.1%
- viability, T/C (second compound 0.0316 µM, first compound 0.03 µM): 74.3%
- viability, T/C (second compound 0.0316 µM, first compound 0.0949 µM): 36.9%
- viability, T/C (second compound 0.0316 µM, first compound 0.3 µM): 14.3%
- viability, T/C (second compound 0.0316 µM, first compound 0.949 µM): 8.38%
- viability, T/C (second compound 0.0316 µM, first compound 3 µM): 3.32%
- viability, T/C (second compound 0.1 µM, first compound 0.00949 µM): 21.3%
- viability, T/C (second compound 0.1 µM, first compound 0.03 µM): 24.6%
- viability, T/C (second compound 0.1 µM, first compound 0.0949 µM): 16.9%
- viability, T/C (second compound 0.1 µM, first compound 0.3 µM): 12.7%
- viability, T/C (second compound 0.1 µM, first compound 0.949 µM): 8.37%
- viability, T/C (second compound 0.1 µM, first compound 3 µM): 3.77%
- viability, T/C (second compound 0.316 µM, first compound 0.00949 µM): 15.7%
- viability, T/C (second compound 0.316 µM, first compound 0.03 µM): 15.5%
- viability, T/C (second compound 0.316 µM, first compound 0.0949 µM): 13.7%
- viability, T/C (second compound 0.316 µM, first compound 0.3 µM): 7.83%
- viability, T/C (second compound 0.316 µM, first compound 0.949 µM): 3.16%
- viability, T/C (second compound 0.316 µM, first compound 3 µM): 2.69%
- viability, T/C (second compound 1 µM, first compound 0.00949 µM): 12.9%
- viability, T/C (second compound 1 µM, first compound 0.03 µM): 12.8%
- viability, T/C (second compound 1 µM, first compound 0.0949 µM): 9.03%
- viability, T/C (second compound 1 µM, first compound 0.3 µM): 5.74%
- viability, T/C (second compound 1 µM, first compound 0.949 µM): 3.19%
- viability, T/C (second compound 1 µM, first compound 3 µM): 1%
- viability, T/C (second compound 3.16 µM, first compound 0.00949 µM): 16.2%
- viability, T/C (second compound 3.16 µM, first compound 0.03 µM): 14.1%
- viability, T/C (second compound 3.16 µM, first compound 0.0949 µM): 8.67%
- viability, T/C (second compound 3.16 µM, first compound 0.3 µM): 4.86%
- viability, T/C (second compound 3.16 µM, first compound 0.949 µM): 2.59%
- viability, T/C (second compound 3.16 µM, first compound 3 µM): 1.1%
- viability, T/C (second compound 10 µM, first compound 0.00949 µM): 14.4%
- viability, T/C (second compound 10 µM, first compound 0.03 µM): 13%
- viability, T/C (second compound 10 µM, first compound 0.0949 µM): 9.72%
- viability, T/C (second compound 10 µM, first compound 0.3 µM): 5.02%
- viability, T/C (second compound 10 µM, first compound 0.949 µM): 2.24%
- viability, T/C (second compound 10 µM, first compound 3 µM): 0.98%

SMILES: COC1C=CCC(C)C(C)S(=O)(=O)NC(=O)c2ccc3c(c2)N(CC2CCC21)CC1(CCCc2cc(Cl)ccc21)CO3 (stereo unspecified) + CNC(=O)c1ccc(Nc2nc(OC3CCCC3)c3c(-c4ccc5nc(C)oc5c4)c[nH]c3n2)c(OC)c1
- IC50 (second compound 0.0316 µM): 210 nM
- IC50 (second compound 0.1 µM): < 31.6 nM
- IC50 (second compound 0.316 µM): < 31.6 nM
- IC50 (second compound 1 µM): < 31.6 nM
- IC50 (second compound 3.16 µM): < 31.6 nM
- IC50 (second compound 10 µM): < 31.6 nM
- viability, T/C [1]: 89.6%
- viability, T/C [2]: 79.6%
- viability, T/C [3]: 32.8%
- viability, T/C [4]: 21.8%
- viability, T/C (second compound 0.0316 µM, first compound 3.16 µM): 15.3%
- viability, T/C (second compound 0.0316 µM, first compound 10 µM): 7.03%
- viability, T/C [5]: 31.7%
- viability, T/C [6]: 27.9%
- viability, T/C [7]: 24.4%
- viability, T/C [8]: 15.4%
- viability, T/C (second compound 0.1 µM, first compound 3.16 µM): 22.5%
- viability, T/C (second compound 0.1 µM, first compound 10 µM): 8.36%
- viability, T/C [9]: 18%
- viability, T/C [10]: 15.1%
- viability, T/C [11]: 12.9%
- viability, T/C [12]: 12.1%
- viability, T/C (second compound 0.316 µM, first compound 3.16 µM): 10.7%
- viability, T/C (second compound 0.316 µM, first compound 10 µM): 7.76%
- viability, T/C [13]: 15.1%
- viability, T/C [14]: 13.3%
- viability, T/C [15]: 11.8%
- viability, T/C [16]: 11.2%
- viability, T/C (second compound 1 µM, first compound 3.16 µM): 11.3%
- viability, T/C (second compound 1 µM, first compound 10 µM): 7.89%
- viability, T/C [17]: 16.1%
- viability, T/C [18]: 13.2%
- viability, T/C [19]: 13.1%
- viability, T/C [20]: 10.6%
- viability, T/C (second compound 3.16 µM, first compound 3.16 µM): 11.4%
- viability, T/C (second compound 3.16 µM, first compound 10 µM): 8.28%
- viability, T/C [21]: 14.7%
- viability, T/C [22]: 15%
- viability, T/C [23]: 15%
- viability, T/C [24]: 10.7%
- viability, T/C (second compound 10 µM, first compound 3.16 µM): 11.6%
- viability, T/C (second compound 10 µM, first compound 10 µM): 9.83%
